Reference: ChEMBL document CHEMBL1149126, “3-phenyl-6-(2-pyridyl)methyloxy-1,2,4-triazolo[3,4-a]phthalazines and analogues: high-affinity gamma-aminobutyric acid-A benzodiazepine receptor ligands with alpha 2, alpha 3, and alpha 5-subtype binding selectivity over alpha 1” (J Med Chem, 2004)

What was measured:
[1] = biological target: T1, GABA-A receptor; alpha-3/beta-3/gamma-2 (Homo sapiens, UniProt P18507+P28472+P34903); test: Binding affinity for human GABA-A receptor alpha-3-beta-3-gamma-2 subunits in L(tk-) cells; format: cell-based
T1 sequence (P18507 whole entry): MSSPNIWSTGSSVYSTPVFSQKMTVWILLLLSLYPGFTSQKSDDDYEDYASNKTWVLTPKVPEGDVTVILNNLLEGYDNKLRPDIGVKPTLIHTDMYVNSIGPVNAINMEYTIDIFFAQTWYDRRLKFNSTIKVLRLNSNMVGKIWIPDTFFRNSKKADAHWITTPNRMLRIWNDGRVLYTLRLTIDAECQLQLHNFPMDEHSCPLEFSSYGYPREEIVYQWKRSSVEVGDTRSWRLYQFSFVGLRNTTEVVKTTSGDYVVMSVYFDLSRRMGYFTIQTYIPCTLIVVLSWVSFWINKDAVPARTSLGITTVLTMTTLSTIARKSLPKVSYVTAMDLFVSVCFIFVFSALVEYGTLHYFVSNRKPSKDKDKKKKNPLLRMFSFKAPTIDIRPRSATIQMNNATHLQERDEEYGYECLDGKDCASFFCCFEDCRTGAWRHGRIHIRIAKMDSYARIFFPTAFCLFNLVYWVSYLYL
T1 sequence (P28472 whole entry): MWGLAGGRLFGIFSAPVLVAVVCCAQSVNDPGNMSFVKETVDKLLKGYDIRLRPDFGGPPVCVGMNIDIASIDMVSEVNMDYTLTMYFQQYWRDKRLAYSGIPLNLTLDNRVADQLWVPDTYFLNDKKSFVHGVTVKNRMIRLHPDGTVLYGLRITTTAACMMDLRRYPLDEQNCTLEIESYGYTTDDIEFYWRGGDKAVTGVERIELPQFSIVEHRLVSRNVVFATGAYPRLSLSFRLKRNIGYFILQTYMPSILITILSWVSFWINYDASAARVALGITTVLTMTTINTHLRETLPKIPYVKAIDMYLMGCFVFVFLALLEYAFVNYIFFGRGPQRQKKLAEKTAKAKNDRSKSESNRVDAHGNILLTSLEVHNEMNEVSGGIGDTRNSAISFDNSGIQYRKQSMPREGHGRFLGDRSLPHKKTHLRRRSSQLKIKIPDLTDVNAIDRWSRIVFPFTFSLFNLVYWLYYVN
T1 sequence (P34903 whole entry): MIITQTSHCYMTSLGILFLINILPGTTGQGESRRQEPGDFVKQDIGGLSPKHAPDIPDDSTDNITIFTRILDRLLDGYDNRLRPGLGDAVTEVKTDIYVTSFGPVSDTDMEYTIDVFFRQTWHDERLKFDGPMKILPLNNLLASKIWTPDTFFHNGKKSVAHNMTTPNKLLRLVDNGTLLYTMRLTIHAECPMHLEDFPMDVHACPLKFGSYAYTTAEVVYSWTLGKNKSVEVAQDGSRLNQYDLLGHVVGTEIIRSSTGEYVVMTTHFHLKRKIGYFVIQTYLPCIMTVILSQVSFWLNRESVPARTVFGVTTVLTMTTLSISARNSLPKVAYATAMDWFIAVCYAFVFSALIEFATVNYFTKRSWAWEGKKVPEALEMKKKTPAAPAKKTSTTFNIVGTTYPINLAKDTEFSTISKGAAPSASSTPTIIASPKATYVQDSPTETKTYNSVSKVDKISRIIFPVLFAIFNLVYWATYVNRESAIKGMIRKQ

[2] = biological target: T2, GABA-A receptor; alpha-5/beta-3/gamma-2 (Homo sapiens, UniProt P18507+P28472+P31644); test: Binding affinity for human GABA-A receptor alpha-5-beta-3-gamma-2 subunits in L(tk-) cells; format: cell-based
T2 sequence (P18507 whole entry): T1 sequence (P18507 whole entry)
T2 sequence (P28472 whole entry): T1 sequence (P28472 whole entry)
T2 sequence (P31644 whole entry): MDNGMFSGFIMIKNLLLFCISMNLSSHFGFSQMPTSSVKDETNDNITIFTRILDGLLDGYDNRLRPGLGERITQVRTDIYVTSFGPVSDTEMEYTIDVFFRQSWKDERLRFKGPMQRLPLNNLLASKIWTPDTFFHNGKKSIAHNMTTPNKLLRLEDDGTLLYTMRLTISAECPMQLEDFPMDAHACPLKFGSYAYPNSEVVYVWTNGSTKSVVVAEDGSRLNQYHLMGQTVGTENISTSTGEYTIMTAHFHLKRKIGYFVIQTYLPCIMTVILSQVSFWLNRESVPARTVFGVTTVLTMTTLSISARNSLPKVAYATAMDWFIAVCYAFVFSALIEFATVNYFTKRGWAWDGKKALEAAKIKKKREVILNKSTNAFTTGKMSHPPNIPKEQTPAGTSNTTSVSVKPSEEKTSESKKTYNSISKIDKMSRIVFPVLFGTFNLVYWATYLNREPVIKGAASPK

[3] = biological target: T3, GABA-A receptor; alpha-2/beta-3/gamma-2 (Homo sapiens, UniProt P18507+P28472+P47869); test: Binding affinity for human GABA-A receptor alpha-2-beta-3-gamma-2 subunits in L(tk-) cells; format: cell-based
T3 sequence (P18507 whole entry): T1 sequence (P18507 whole entry)
T3 sequence (P28472 whole entry): T1 sequence (P28472 whole entry)
T3 sequence (P47869 whole entry): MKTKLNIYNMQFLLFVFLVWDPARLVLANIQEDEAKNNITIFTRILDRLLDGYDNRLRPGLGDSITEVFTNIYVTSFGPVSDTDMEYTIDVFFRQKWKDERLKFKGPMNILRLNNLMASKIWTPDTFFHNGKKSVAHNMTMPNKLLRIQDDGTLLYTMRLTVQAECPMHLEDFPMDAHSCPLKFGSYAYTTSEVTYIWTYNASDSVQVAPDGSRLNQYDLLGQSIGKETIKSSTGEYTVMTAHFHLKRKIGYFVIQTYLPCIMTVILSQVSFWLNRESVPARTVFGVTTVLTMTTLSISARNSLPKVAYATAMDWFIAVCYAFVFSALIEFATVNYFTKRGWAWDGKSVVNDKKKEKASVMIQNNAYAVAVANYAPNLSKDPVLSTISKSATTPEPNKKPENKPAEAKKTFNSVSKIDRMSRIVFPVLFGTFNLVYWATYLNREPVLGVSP

[4] = biological target: T4, GABA-A receptor; alpha-1/beta-3/gamma-2 (Homo sapiens, UniProt P14867+P18507+P28472); test: Binding affinity for human GABA-A receptor alpha-1-beta-3-gamma-2 subunits in L(tk-) cells
T4 sequence (P14867 whole entry): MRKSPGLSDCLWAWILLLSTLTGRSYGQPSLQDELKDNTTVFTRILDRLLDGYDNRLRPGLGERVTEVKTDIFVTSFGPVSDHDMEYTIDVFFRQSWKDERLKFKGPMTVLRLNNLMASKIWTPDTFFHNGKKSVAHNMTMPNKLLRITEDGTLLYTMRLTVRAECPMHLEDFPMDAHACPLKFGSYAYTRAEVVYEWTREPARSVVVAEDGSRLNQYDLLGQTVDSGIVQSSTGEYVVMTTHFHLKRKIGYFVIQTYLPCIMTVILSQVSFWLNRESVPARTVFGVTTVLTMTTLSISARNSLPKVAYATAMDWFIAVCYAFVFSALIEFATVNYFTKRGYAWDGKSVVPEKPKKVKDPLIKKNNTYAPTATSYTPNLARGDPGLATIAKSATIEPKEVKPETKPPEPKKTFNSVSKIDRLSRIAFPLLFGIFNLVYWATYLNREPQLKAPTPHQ
T4 sequence (P18507 whole entry): T1 sequence (P18507 whole entry)
T4 sequence (P28472 whole entry): T1 sequence (P28472 whole entry)

| SMILES | Ki [1] | Ki [2] | Ki [3] | Ki [4] |
| --- | --- | --- | --- | --- |
| COc1nn2c(-c3ccccc3)nnc2c2ccccc12 | 120 nM | 39 nM | 160 nM | 140 nM |
| c1ccc(-c2nnc3c4ccccc4c(OCc4ccsc4)nn23)cc1 | 240 nM | 250 nM | 510 nM | 710 nM |
| c1ccc(Cc2nnc3c4ccccc4c(OCc4ccccn4)nn23)cc1 | 190 nM | 18 nM | 340 nM | 260 nM |
| Cc1ccc(COc2nn3c(-c4ccccc4)nnc3c3ccccc23)nc1 | 4.3 nM | 1.1 nM | 3.6 nM | 4.8 nM |
| c1ccc(-c2nnc3c4ccccc4c(OCCc4ccccn4)nn23)cc1 | 17 nM | 15 nM | 25 nM | 18 nM |
| c1ccc(-c2nnc3c4ccccc4c(OCC4CCCCC4)nn23)cc1 | > 1000 nM | > 1000 nM | > 1000 nM | > 1000 nM |
| COc1ccc(-c2nnc3c4ccccc4c(=O)n(Cc4ccccc4)n23)cc1 | > 1000 nM | > 1000 nM | > 1000 nM | > 1000 nM |
| Cc1cccnc1COc1nn2c(-c3ccccc3)nnc2c2ccccc12 | 1 nM | 0.88 nM | 2.3 nM | 2.4 nM |
| Cc1ccc2c(OCc3ccccn3)nn3c(-c4ccccc4)nnc3c2c1 | > 1000 nM | > 1000 nM | > 1000 nM | > 1000 nM |
| Cc1ccc(-c2nnc3c4ccccc4c(OCc4ccccn4)nn23)cc1 | 11 nM | 4 nM | 16 nM |  |
| CC(C)(C)c1nnc2c3ccccc3c(OCc3ccccn3)nn12 | > 1000 nM | > 1000 nM | > 1000 nM | > 1000 nM |
| c1ccc(CCCOc2nn3c(-c4ccccc4)nnc3c3ccccc23)cc1 | 420 nM | > 1000 nM | > 1000 nM | 300 nM |
| c1ccc(Oc2nn3c(-c4ccccc4)nnc3c3ccccc23)cc1 | > 1000 nM | > 1000 nM | > 1000 nM | > 1000 nM |
| c1ccc(CSc2nn3c(-c4ccccc4)nnc3c3ccccc23)cc1 | > 1000 nM | > 1000 nM | > 1000 nM | > 1000 nM |
| Cn1ccnc1COc1nn2c(-c3ccccc3)nnc2c2ccccc12 | 0.22 nM | 0.17 nM | 0.7 nM | 0.51 nM |
| c1ccc(-c2nnc3c4ccccc4c(OCC4CCNCC4)nn23)cc1 | 37 nM | 30 nM | 40 nM | 32 nM |
| COc1cccc(COc2nn3c(-c4ccccc4)nnc3c3ccccc23)c1 | 66 nM | 150 nM | 170 nM | 800 nM |
| c1ccc(CNc2nn3c(-c4ccccc4)nnc3c3ccccc23)cc1 | > 1000 nM | > 1000 nM | > 1000 nM | > 1000 nM |
